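Five compound concentrations were applied to cells in 96-well plates for 48 hours; endpoints were derived by simple linear interpolation of the resulting dose-response curve. Here, GI50 denotes the concentration required for 50% inhibition of growth.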 The source made the active and inactive calls. No stated cut-off is given here; in the data, active = GI50 up to about 1.1 µM and inactive = higher.
How the values were obtained:
Experiment in all cases: NCI tumour cell line growth inhibition, 48 h
[1] = tested on: M14
[2] = tested on: OVCAR-4
[3] = tested on: RPMI-8226
[4] = tested on: SR
[5] = tested on: SNB-19
[6] = tested on: NCI-H226
[7] = tested on: SNB-75
[8] = tested on: 786-0
[9] = tested on: EKVX
[10] = tested on: SF-268
[11] = tested on: Malme-3M
[12] = tested on: PC-3
[13] = tested on: HCC 2998
[14] = tested on: MDA-MB-435
[15] = tested on: ACHN
[16] = tested on: HOP-62
[17] = tested on: BT-549
[18] = tested on: HOP-92
[19] = tested on: OVCAR-5
[20] = tested on: MDA-N

Measured: GI50

c1ccc2c(c1)c1c3n2-c2cc(on2)C3CCC1 (stereo not given)
inactive: [1] > 100 µM | [2] > 100 µM | [3] > 100 µM | [4] > 100 µM | [5] > 100 µM | [6] > 100 µM | [7] > 100 µM | [8] > 100 µM | [9] > 100 µM | [10] > 100 µM | [11] > 100 µM | [12] > 100 µM | [13] > 100 µM | [14] > 100 µM | [15] > 100 µM | [16] > 100 µM | [17] > 100 µM | [18] > 100 µM | [19] > 100 µM | [20] > 100 µM

c1ccc(CC(Nc2cccnc2)c2ccccc2)cc1 (stereo not given)
inactive: [1] 17.9 µM | [2] 25.7 µM | [3] 17 µM | [4] 23.9 µM | [5] 30.8 µM | [6] 24.2 µM | [7] 24.9 µM | [8] 21.3 µM | [9] 24.2 µM | [10] 40.6 µM | [11] 29 µM | [12] 24.8 µM | [13] 21.2 µM | [14] 22.9 µM | [15] 37.7 µM | [16] 24.5 µM | [17] 25.2 µM | [18] 17.4 µM | [19] 33.3 µM | [20] 20.1 µM

c1ccc(CN2COc3c(ccc4c5c(ccc34)CN(Cc3ccccc3)CO5)C2)cc1
inactive: [1] > 100 µM | [2] > 100 µM | [3] > 100 µM | [4] > 100 µM | [5] > 100 µM | [6] > 76.6 µM | [7] > 100 µM | [8] > 100 µM | [9] > 100 µM | [10] > 100 µM | [11] > 100 µM | [12] > 100 µM | [13] > 100 µM | [14] > 100 µM | [15] > 100 µM | [16] > 100 µM | [17] > 100 µM | [18] > 100 µM | [19] > 100 µM | [20] > 100 µM

CCOC(=O)C1(Cc2ccccc2)CCN(C(=O)c2ccccc2)C2C1C2(Cl)Cl (stereo not given)
inactive: [1] 18.3 µM | [2] 26 µM | [3] 13.2 µM | [4] 23.6 µM | [5] 36.1 µM | [6] 23.6 µM | [7] 23.1 µM | [8] 20.1 µM | [9] 19.3 µM | [10] 29 µM | [11] 21.4 µM | [12] 16.7 µM | [13] 14.5 µM | [14] 21.1 µM | [15] 21.6 µM | [16] 27.6 µM | [17] 25.2 µM | [18] 26.6 µM | [19] 29.9 µM | [20] 17.9 µM

COc1cc2c3c(c1O)C1(C=CC(=O)C=C1)CC3N(C)CC2 (stereo not given) [GLAZIOVINE]
inactive: [1] 12.1 µM | [2] 5.97 µM | [3] 14.8 µM | [4] 3.3 µM | [5] 14.3 µM | [6] 22 µM | [7] 4.57 µM | [8] 3.17 µM | [9] 8.41 µM | [10] 11 µM | [11] 11.3 µM | [12] 14.3 µM | [13] 12.4 µM | [14] 11 µM | [15] 14.5 µM | [16] 13.1 µM | [17] 5.78 µM | [18] 11.6 µM | [19] 19.3 µM | [20] 10.7 µM

c1ccc2sc(SSSc3nc4ccccc4s3)nc2c1
inactive: [1] > 100 µM | [2] > 100 µM | [3] > 100 µM | [4] 53.8 µM | [5] > 100 µM | [6] > 100 µM | [7] > 100 µM | [8] 44.4 µM | [9] > 100 µM | [10] > 100 µM | [11] > 100 µM | [12] > 100 µM | [13] > 100 µM | [14] > 100 µM | [15] > 100 µM | [16] > 100 µM | [17] > 100 µM | [18] > 100 µM | [19] > 100 µM | [20] > 100 µM

COc1ccc2c3c(c(=O)n(C)c2c1OC)C=CC(C)(C)O3
inactive: [1] 48.3 µM | [2] 19.1 µM | [3] 10 µM | [4] 3.46 µM | [5] 20.7 µM | [6] 22.2 µM | [7] 2.78 µM | [8] 43.1 µM | [9] 23.9 µM | [10] 26.8 µM | [11] 50.4 µM | [12] 33.7 µM | [13] 29.5 µM | [14] 38.3 µM | [15] 13.7 µM | [16] 80.2 µM | [17] 22.1 µM | [18] 18 µM | [19] 82 µM | [20] 21.7 µM

CC1(C)CCCC2OC2CCC(C)(C)C1=O (stereo not given)
inactive: [1] > 100 µM | [2] > 100 µM | [3] > 100 µM | [4] > 100 µM | [5] > 100 µM | [6] > 100 µM | [7] > 100 µM | [8] > 100 µM | [9] > 100 µM | [10] > 100 µM | [11] > 100 µM | [12] > 100 µM | [13] > 100 µM | [14] > 100 µM | [15] > 100 µM | [16] > 100 µM | [17] > 100 µM | [18] > 100 µM | [19] > 100 µM | [20] > 100 µM

C[C@@H](CC(=O)OCc1ccccc1)OC1OC(COC(=O)C(C)(C)C)C(OC(=O)C(C)(C)C)C(OC(=O)C(C)(C)C)C1OC(=O)C(C)(C)C (stereo not given in full)
inactive: [1] > 100 µM | [2] > 100 µM | [3] > 100 µM | [4] > 100 µM | [5] > 100 µM | [6] > 100 µM | [7] > 100 µM | [8] > 100 µM | [9] > 100 µM | [10] > 100 µM | [11] > 100 µM | [12] > 100 µM | [13] > 100 µM | [14] > 100 µM | [15] > 100 µM | [16] > 100 µM | [17] > 100 µM | [18] > 100 µM | [19] > 100 µM | [20] 36 µM

CC(C)(C)c1cc(C(C)(C)C)c(SC2OC(CO)C(O)C(O)C2O)c(O)c1O (stereo not given)
inactive: [1] 18.3 µM | [2] 12.3 µM | [3] 15.1 µM | [4] 4.52 µM | [5] 8.02 µM | [6] 12.3 µM | [7] 1.55 µM | [8] 12.7 µM | [9] 10.8 µM | [10] 6.97 µM | [11] 12.6 µM | [12] 9.18 µM | [13] 6.22 µM | [14] 4.94 µM | [15] 6.53 µM | [16] 13.2 µM | [17] 10.6 µM | [18] 11.6 µM | [19] 9.18 µM | [20] 4.12 µM

Cc1ccc(OC2CC(n3cnc4ncnc(Cl)c43)OC2Oc2ccc(C)cc2)cc1 (stereo not given)
inactive: [1] 18.1 µM | [2] 27.9 µM | [3] 2.81 µM | [4] 2.48 µM | [5] 16.1 µM | [6] 13.7 µM | [7] 15.6 µM | [8] > 100 µM | [9] 33.3 µM | [10] 18.7 µM | [11] 40.5 µM | [12] 16.4 µM | [13] 8.04 µM | [14] 39.1 µM | [15] 2.59 µM | [16] 27.3 µM | [17] 25.4 µM | [18] 8.77 µM | [19] 22 µM | [20] 22.4 µM

Oc1cccc2cc(Br)cnc12
inactive: [1] 9.14 µM | [2] 2.86 µM | [3] 3.49 µM | [4] 3.42 µM | [5] > 39.4 µM | [6] 27.5 µM | [7] 18 µM | [8] 31 µM | [9] 5.14 µM | [10] 2.33 µM | [11] 7.96 µM | [12] 6.68 µM | [13] 27.9 µM | [14] 14.1 µM | [15] 6.03 µM | [16] 16.2 µM | [17] 28.1 µM | [18] 16 µM | [19] 17.7 µM | [20] 21.7 µM

Cn1c(=O)c2c(no[n+]2[O-])c2ccccc21
inactive: [1] 12.4 µM | [2] 18.4 µM | [3] 22.2 µM | [4] 5 µM | [5] 26.4 µM | [6] 16.9 µM | [7] 18.6 µM | [8] 15.5 µM | [9] 18.3 µM | [10] 20.5 µM | [11] 14.2 µM | [12] 24.9 µM | [13] 12.9 µM | [14] 24.8 µM | [15] 26.5 µM | [16] 17.3 µM | [17] 15 µM | [18] 20.2 µM | [19] > 10 µM | [20] 26.4 µM

O=C1OC(c2ccco2)=N/C1=C\c1cccc([N+](=O)[O-])c1
inactive: [1] > 100 µM | [2] > 100 µM | [3] > 100 µM | [4] > 100 µM | [5] > 100 µM | [6] > 100 µM | [7] > 100 µM | [8] > 100 µM | [9] > 100 µM | [10] > 100 µM | [11] > 100 µM | [12] > 100 µM | [13] > 100 µM | [14] > 100 µM | [15] > 100 µM | [16] > 100 µM | [17] > 100 µM | [18] > 100 µM | [19] > 100 µM | [20] > 100 µM

Source: ChEMBL document CHEMBL1201862, “PubChem BioAssay data set” (2004)
